The values that follow come from patent publication US20140228445A1, “ALKYNE DERIVATIVES AS SPHINGOSINE 1-PHOSPHATE (S1P) RECEPTOR MODULATORS” (Allergan, Inc., priority 2013, published 2014).

In this experiment the target is T1, human S1P1 receptor (Homo sapiens, UniProt P21453).
T1 construct: expressed in transfected cells; membranes used
Description: GTP γ35S binding assay for S1P1 activity. It counts as biochemical. Conditions: membranes of cells stably expressing the S1P1 receptor, test range 0.08 to 5,000 nM. How it is done:
Compounds were synthesized and tested for S1P1 activity using the GTP γ^35S binding assay. These compounds may be assessed for their ability to activate or block activation of the human S1P1 receptor in cells stably expressing the S1P1 receptor.
GTP γ^35S binding was measured in the medium containing (mM) HEPES 25, pH 7.4, MgCl2 10, NaCl 100, dithitothreitol 0.5, digitonin 0.003%, 0.2 nM GTP γ^35S, and 5 μg membrane protein in a volume of 150 μl. Test compounds were included in the concentration range from 0.08 to 5,000 nM unless indicated otherwise. Membranes were incubated with 100 μM 5′-adenylylimmidodiphosphate for 30 min, and subsequently with 10 μM GDP for 10 min on ice. Drug solutions and membrane were mixed, and then reactions were initiated by adding GTP γ^35S and continued for 30 min at 25° C. Reaction mixtures were filtered over Whatman GF/B filters under vacuum, and washed three times with 3 mL of ice-cold buffer (HEPES 25, pH7.4, MgCl2 10 and NaCl 100). Filters were dried and mixed with scintillant, and counted for ^35S activity using a β-counter. Agonist-induced GTP γ^35S binding was obtained by subtracting that in the absence of agonist. Binding data were analyzed using a non-linear regression method. In case of antagonist assay, the reaction mixture contained 10 nM S1P in the presence of test antagonist at concentrations ranging from 0.08 to 5000 nM.
(In general: GTPγS is a poorly hydrolysed GTP analogue; its binding reports G protein activation.)

The structures appear in SMILES notation.

T1 sequence (P21453 whole entry): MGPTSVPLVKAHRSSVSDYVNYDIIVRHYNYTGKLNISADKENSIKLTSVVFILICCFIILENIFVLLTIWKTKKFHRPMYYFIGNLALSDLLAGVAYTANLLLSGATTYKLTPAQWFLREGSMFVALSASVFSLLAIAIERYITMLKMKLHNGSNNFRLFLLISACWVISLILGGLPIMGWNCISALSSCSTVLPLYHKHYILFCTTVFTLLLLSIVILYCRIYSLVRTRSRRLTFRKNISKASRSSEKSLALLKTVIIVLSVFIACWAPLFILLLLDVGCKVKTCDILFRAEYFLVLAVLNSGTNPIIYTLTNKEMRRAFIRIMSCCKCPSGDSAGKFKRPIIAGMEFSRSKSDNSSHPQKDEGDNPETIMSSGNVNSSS

On to `Cc1ccc(CC(C#Cc2ccc(CCC(N)(CO)CO)cc2)c2cc(F)cc(F)c2)cc1C` (stereo not drawn) [Compound 1, 2-Amino-2-(2-{4-[3-(3,5-difluorophenyl)-4-(3,4-dimethylphenyl)but-1-yn-1-yl]phenyl}ethyl)propane-1,3-diol], for which the concentration for a half-maximal effect (EC50) (in general, the midpoint of the concentration-response curve) was 35.5 nM.
Then `Cc1ccc(CC(C#Cc2ccc(CCC(N)(CO)CO)cc2)c2cccc(F)c2)cc1C` (stereo not drawn) [Compound 2, 2-Amino-2-(2-{4-[4-(3,4-dimethylphenyl)-3-(3-fluorophenyl)but-1-yn-1-yl]phenyl}ethyl)propane-1,3-diol], with 3.27 nM; and `Cc1cccc(C(C#Cc2ccc(CCC(N)(CO)CO)cc2)Cc2ccc(C)c(C)c2)c1` (stereo not drawn) [Compound 3, 2-Amino-2-(2-{4-[4-(3,4-dimethylphenyl)-3-(3-methylphenyl)but-1-yn-1-yl]phenyl}ethyl)propane-1,3-diol], with 416 nM.
